Consider four compounds from the NIST ThermoML archive (doi:10.1021/je9004189).

For series [1] the following is noted: 293.15 K, 101.33 kPa, Liquid.
The nature of series [2]: refractive index (Na D-line) (dimensionless). As to conditions: 293.15 K; 101.33 kPa; Liquid; Standard Abbe refractometry.

SMILES strings stand for the structures. ± gives the expanded uncertainty stated by the source.

Take `c1ccccc1` [benzene]: in series [1] (Vibrating tube method), the mass density came to 879 ± 1 kg/m3. In addition, the refractive index in series [2] is listed as 1.5011 ± 0.0007.
As for `CC(C)=O` [acetone], in series [1], the mass density is reported as 790 ± 1 kg/m3. In addition, the refractive index in series [2] came to 1.359 ± 0.0007.
Consider `CO` [methanol], for which the mass density in series [1] (Vibrating tube method) is recorded as 792 ± 1 kg/m3. Besides, the refractive index in series [2] came to 1.3301 ± 0.0007.
Taken in the same sequence, the figures for `CCO` [ethanol] were 790 ± 1 kg/m3 and 1.366 ± 0.0007.
